Assay results published in patent publication US7605156B2, “Methods for the use of inhibitors of cytosolic phospholipase A2” (Wyeth, priority 2001, dated 2009).

Tests used:
B6 mice = experiment: Experimental autoimmune encephalomyelitis (EAE), animal model of multiple sclerosis; type: in vivo; details: orally, 100 mg/kg, twice/day; for EAE clinical score: prevention of EAE: from the day of immunization; for EAE clinical score: clinical severity of EAE: starting on the day of EAE onset (day 15)
Procedure: Six groups of B6 mice were immunized with MOG/CFA and injected with pertussis toxin to induce experimental autoimmune encephalomyelitis (EAE), an animal model of Multiple sclerosis. […] Another three groups of mice were treated with vehicle, Compound A or Compound B starting on the day of EAE onset (day 15) (orally, 100 mg/kg, twice/day). […] The results are shown in FIG. 1, wherein mean clinical score is a mean of clinical evaluation of each animal for that particular day. Animals are scored as follows: • 0 no clinical signs of EAE (no paralysis) • 1—paralysis of tail • 2—paralysis of tail and partial hind leg paralysis • 3—paralysis of tail And complete hind leg paralysis • 4—paralysis of tail, complete hind leg paralysis and a partial front leg paralysis • 5—moribund animal (all four limbs paralyzed, lack of responsiveness, these mice were immediately euthanized).

ApoE KO mice = experiment: ApoE knockout mouse model of atherosclerosis; type: in vivo; details: 3.3 mg/g in chow, 20 weeks
[1] = test system: Primary cerebellar granule neurons; experiment: Oxygen-glucose deprivation (OGD) in cultured neurons; type: cell-based, rat; details: various concentrations, added 60 minutes before OGD; 2 hours OGD, read 24 hours later
Procedure: Primary cerebellar granule neurons were isolated from P5-8 rat pups. Briefly, cerebelli were collected and pooled in ice-cold phosphate buffer saline (PBS) without Ca^2+ and Mg^2+. The tissue was finely chopped and transferred to an enzymatic dissociation media containing 20 IU/ml papain in Earle's balanced salt solution (Worthington Biochemical, Freehold, N.J.) and incubated for 30 minutes at 37° C. After enzymatic dissociation, the papain solution was aspirated and the tissue mechanically triturated with a fire-polished Pasteur pipette in complete media [Neurobasal Medium with B-27 supplement (Gibco, Grand Island, N.Y.), penicillin/streptomycin, aphidicolin, glutamate, potassium chloride] containing 2,000 IU/ml DNase and 10 mg/ml ovomucoid protease inhibitor. Single-cell suspensions in complete media were plated on pre-coated poly-L-ornithine/laminin 24-well plates (Becton-Dickinson, Bedford, Mass.) at a density of 5.0×10^5 cells/well. Cells were maintained for two weeks prior to experimentation.
Cultures were treated with Compound A at various concentrations, 60 minutes before OGD. Media was removed and replaced with deoxygenated buffer in an anaerobic chamber (80% nitrogen, 10% hydrogen, 10% carbon dioxide gas mixture). […] Cell death was determined by measuring lactate dehydrogenase release into the media 24 hours later (Roche Biochemicals). […]

[2] = test system: Primary dopaminergic neurons; experiment: MPP+ exposure in dopaminergic neurons (3H-dopamine uptake); type: cell-based, rat; details: 10 μM MPP+ for 60 minutes, read 24 hours later
Procedure: Primary dopaminergic neurons were isolated from E15 rat embryos as described in Pong K., et al., (1997) J. Neurochem. 69 986-994. Briefly, the ventral mesencephalon was isolated and tissue was pooled in ice-cold phosphate buffer saline (PBS) without Ca^2+ and Mg^2+. The tissue was transferred to an enzymatic dissociation media containing 20 IU/ml papain in Earle's balanced salt solution (Worthington Biochemical, Freehold, N.J.) and incubated for 30 minutes at 37° C. After enzymatic dissociation, the papain solution was aspirated and the tissue mechanically triturated with a fire-polished Pasteur pipette in complete media [Neurobasal Medium with B-27 supplement (Gibco, Grand Island, N.Y.), penicillin/streptomycin, aphidicolin, glutamate] containing 2,000 IU/ml DNase and 10 mg/ml ovomucoid protease inhibitor. Single-cell suspensions in complete media were plated on pre-coated poly-L-ornithine/laminin 24-well plates (Becton-Dickinson, Bedford, Mass.) at a density of 5.0×10^5 cells/well. […]
Cultures were treated with various concentrations of Compound A and GDNF (glial-cell line derived neurotrophic factor, a positive control) hours before exposure to the neurotoxin MPP^+, the toxic metabolite of MPTP. […] Dopaminergic neuron viability was determined 24 hours later by measuring ^3H-dopamine uptake as described in Pong et al., 1997, supra.

Adult male Wistar rats [3] = experiment: Permanent middle cerebral artery occlusion (pMCAO); type: in vivo; details: dosed four times; 72 hours post ischemia
Procedure: Adult male Wistar rats (Charles River, Wilmington, Mass.) 270-300 g were anesthetized with 3% isoflurane in 70% nitrous oxide and 30% oxygen through a nose cone. Temperature was maintained at 37° C. throughout the surgery using a heating lamp. Permanent occlusion of MCAO was induced by electrocauterization of the distal portion of the MCA (via a craniotomy) with a 120 min ligation of both carotid arteries to interrupt collateral circulation (see Chen, S. T., et al, 1986 Stroke 17:738-743). Rats were sacrificed 72 hours post ischemia for measurement of infarct volume.
(§1) After sacrifice, the brains are extracted and placed in a rat brain matrix and 2 mm coronal slabs are taken from 4 mm caudal to the frontal pole and extending to the hindbrain. Sections are immersed in the active mitochondrial stain TTC at 37° C. for 10 min to delineate the lesion. Digitized sections are collected on the MCID image analysis system (Imaging Research, Inc. Ontario, Canada), area measurements are determined and a total lesion volume is calculated (area×distance in mm).

Adult male Wistar rats [4] = experiment: Transient middle cerebral artery occlusion (tMCAO); type: in vivo
Procedure: Adult male Wistar rats (Charles River, Wilmington, Mass.) 290-310 g were anesthetized with 3% isoflurane in 70% nitrous oxide and 30% oxygen through a nose cone. Temperature was maintained at 37° C. throughout the surgery using a heating lamp. Transient MCAO was induced for 90 min using the intraluminal suture method (see Longa, E. L. et al., 1989 Stroke 20:294-297). Briefly, an 18 mm length of 4-0 monofilament nylon suture coated with 0.1% poly-L-lysine (Belayev, L. et al, 1996 Stroke 27:1616-1623) and a flame-rounded tip was inserted into the external carotid artery and advanced through the internal carotid to occlude the origin of the middle cerebral artery (MCAO). Ninety minutes later the rats were re-anesthetized and the suture was withdrawn. Rats were sacrificed at 72 hrs post-MCAO.
Behavioral score: Animals are tested for motor deficits using a modified Bederson score. Briefly, animals are tested for flexion of the contralateral forelimb, twisting of the torso, decreased resistance to lateral push, circling to the contralateral side when holding the tail, and spontaneous circling. Each animal is scored 1 point for each behavior detected for a total of 5 points. Each animal is score at 90 min, just prior to reperfusion, at 24 hrs, 48 hrs and 72 hrs following MCAO.
Body weight is taken prior to MCAO surgery for baseline and 24 hrs, 48 hrs and 72 hrs after MCAO.
as §1

cPLA2 = target: T1, cPLA2 (Homo sapiens, UniProt P47712); experiment: Coumarine assay (hydrolysis of 7-hydroxycoumarinyl 6-heptenoate); type: biochemical; details: 60 μM 7-hydroxycoumarinyl 6-heptenoate, pH 7.5; read-out: Coumarin IC50
T1 sequence (P47712 1-749): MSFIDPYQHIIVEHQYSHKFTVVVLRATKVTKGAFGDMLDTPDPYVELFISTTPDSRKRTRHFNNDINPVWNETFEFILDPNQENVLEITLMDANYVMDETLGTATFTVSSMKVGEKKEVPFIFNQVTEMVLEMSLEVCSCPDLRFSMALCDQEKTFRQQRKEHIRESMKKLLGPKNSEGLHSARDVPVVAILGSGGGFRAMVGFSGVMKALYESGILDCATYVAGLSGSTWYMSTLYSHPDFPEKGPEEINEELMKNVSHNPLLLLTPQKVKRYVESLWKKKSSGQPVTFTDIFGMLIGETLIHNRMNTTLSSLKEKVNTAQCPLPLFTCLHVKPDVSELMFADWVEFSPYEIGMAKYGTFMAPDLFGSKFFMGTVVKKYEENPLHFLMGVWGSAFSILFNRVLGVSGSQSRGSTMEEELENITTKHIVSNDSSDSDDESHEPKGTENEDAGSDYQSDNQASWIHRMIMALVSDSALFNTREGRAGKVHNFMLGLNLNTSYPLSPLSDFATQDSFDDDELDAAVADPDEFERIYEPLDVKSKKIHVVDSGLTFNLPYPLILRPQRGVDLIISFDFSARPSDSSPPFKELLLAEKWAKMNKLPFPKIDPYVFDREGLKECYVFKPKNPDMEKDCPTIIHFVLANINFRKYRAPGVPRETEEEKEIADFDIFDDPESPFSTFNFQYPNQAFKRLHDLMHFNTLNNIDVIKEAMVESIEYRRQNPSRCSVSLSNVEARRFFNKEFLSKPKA

[5] = 10 mg/kg and 30 mg/kg four times

SMILES | EAE clinical score: prevention of EAE (B6 mice) | EAE clinical score: clinical severity of EAE (B6 mice) | IC50 (cPLA2) [nM] | melting point [°C] | also measured
O=C(O)c1ccc(OCCc2c(CCNS(=O)(=O)Cc3ccc(Cl)c(Cl)c3)n(C(c3ccccc3)c3ccccc3)c3ccc(Cl)cc23)cc1 [Example 10, 4-{2-[1-Benzhydryl-5-chloro-2-(2-{[(3,4-dichlorobenzyl)sulfonyl]amino}-ethyl)-1H-indol-3-yl]ethoxy}benzoic acid] | prevent EAE | reduce clinical severity of EAE |  |  | 
O=C(O)c1ccc(CCCc2c(CCNS(=O)(=O)Cc3ccc(Cl)c(Cl)c3)n(C(c3ccccc3)c3ccccc3)c3ccc(Cl)cc23)cc1 [Example 44] |  |  |  |  | atherosclerotic plaque burden at the aortic sinus (ApoE KO mice): 282697±146462 μm^2; decrease of atherosclerotic plaque burden at the aortic sinus (ApoE KO mice; vs control animals, p<0.001): 45.6%
Cc1cccc(C)c1CS(=O)(=O)NCCc1c(CCCc2ccc(C(=O)O)cc2)c2cc(Cl)ccc2n1C(c1ccccc1)c1ccccc1 [Example 52, 4-{3-[1-benzhydryl-5-chloro-2-(2-{[(2,6-dimethylbenzyl)-sulfonyl]amino}ethyl)-1H-indol-3-yl]propyl}benzoic acid] | prevent EAE | reduce clinical severity of EAE |  |  | OGD-induced cell death (lactate dehydrogenase release) [1]: effective in protecting cultured neurons from OGD-induced cell death; dopaminergic neuron viability (3H-dopamine uptake) [2]: effective to protect dopaminergic neuron viability against MPP^+; infarct volume (Adult male Wistar rats [3]): significantly reduces infarct volume; behavioral deficits (modified Bederson score) (Adult male Wistar rats [4]; [5]): effectively reduced behavioral deficits; weight loss following MCAO (Adult male Wistar rats [4]; [5]): reduced weight loss; infarct volume (Adult male Wistar rats [4]; 10 mg/kg or 30 mg/kg four times (90 min, […], 24 hr, 48 hr post occlusion)): significant level of neuroprotection; therapeutically relevant window of opportunity (Adult male Wistar rats [4]; 30 mg/kg 3 times, first dose 4 or 6 hrs post occlusion, measuring infarct volume and neurological deficits): at least 6 hrs; significant treatment window (Adult male Wistar rats [4]; 30 mg/kg 3 times, first dose 4 or 6 hrs post occlusion, measuring weight loss): 4 h
O=C(O)c1ccc(OCCc2c(CCNS(=O)(=O)Cc3ccc(Cl)c(Cl)c3)n(C(c3ccccc3)c3ccccc3)c3ccc(Cl)cc23)cc1F [Example 296, 4-{2-[1-benzhydryl-5-chloro-2-(2-{[(3,4-dichlorobenzyl)sulfonyl]amino}ethyl)-1H-indol-3-yl]ethoxy}-2-fluorobenzoic acid] |  |  | 320 | 117 to 119 | 
O=C(O)c1ccc(OCCc2c(CCNS(=O)(=O)Cc3ccccc3Cl)n(C(c3ccccc3)c3ccccc3)c3ccc(Cl)cc23)cc1F [Example 297, 4-{2-[1-benzhydryl-5-chloro-2-(2-{[(2-chlorobenzyl)sulfonyl]amino}ethyl)-1H-indol-3-yl]ethoxy}-2-fluorobenzoic acid] |  |  | 300 | 132 to 135 | 
CC(C)(Cc1ccc(S(=O)(=O)CCc2c(CCNS(=O)(=O)Cc3ccc(Cl)c(Cl)c3)n(C(c3ccccc3)c3ccccc3)c3ccc(Cl)cc23)cc1)C(=O)O [Example 298, 3-[4-({2-[1-benzhydryl-5-chloro-2-(2{[(3,4-dichlorobenzyl)sulfonyl]amino}ethyl)-1H-indol-3-yl]ethyl}sulfonyl)phenyl]-2,2-dimethylpropanoic acid] |  |  | 190 | 207 to 208 | 
